Assay results: patent US10517889B2, “Modulators of SMAD7 expression” (Ionis Pharmaceuticals, Inc., priority 2017, dated 2019)
Strand notation (5' to 3'): a small letter for the sugar, then the base; units joined by * are phosphorothioate-linked, units joined directly phosphodiester-linked; [ ] holds rarer units or linkages, { } end groups; capitals alone tell only the bases. k = constrained ethyl (cEt); [5mC] = 5-methylcytosine; d = 2'-deoxy (DNA)

tested on: human SMAD7 mRNA; experiment: Antisense inhibition of human SMAD7 mRNA expression in Hep3B cells by 3-10-3 cEt gapmers, 10,000 nM, electroporation (Example 2); assay type: cell-based; details: Hep3B cells, electroporation with 10,000 nM antisense oligonucleotide, approximately 24 hours, SMAD7 mRNA by RT-PCR (RTS5062), relative to untreated control cells
Summary of the method: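 SMAD7 mRNA was measured by real-time PCR (RTS5062) with RiboGreen total-RNA normalization, about 24 h after 10,000 nM gapmer was delivered by electroporation into Hep3B cells at 20,000 per well. Gapmers were 16-mer 3-10-3 cEt, fully phosphorothioate; values are % inhibition versus untreated controls.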

First: 830038 (antisense k[5mC]*k[5mC]*kT*dA*dT*dT*dG*dG*d[5mC]*dT*dG*dA*dT*k[5mC]*kT*kG) [compound 830038]
Second: 830039 (antisense kT*kT*k[5mC]*d[5mC]*dT*dA*dT*dT*dG*dG*d[5mC]*dT*dG*kA*kT*k[5mC]) [compound 830039]
The “% Inhibition” value of the first is lower: 50% for the first, 51% for the second.

Compared with “830040 (antisense k[5mC]*kA*k[5mC]*dT*dT*d[5mC]*d[5mC]*dT*dA*dT*dT*dG*dG*k[5mC]*kT*kG) [compound 830040]”, “830041 (antisense kT*k[5mC]*kA*d[5mC]*dT*dT*d[5mC]*d[5mC]*dT*dA*dT*dT*dG*kG*k[5mC]*kT) [compound 830041]” is higher in “% Inhibition” value: 44% for the first, 56% for the second.

First: 830042 (antisense k[5mC]*kA*kG*dG*dT*dT*dA*dA*dT*d[5mC]*dA*d[5mC]*dT*kT*k[5mC]*k[5mC]) [compound 830042]
Second: 830043 (kT*kT*kG*dG*d[5mC]*dA*dG*dG*dT*dT*dA*dA*dT*k[5mC]*kA*k[5mC]; antisense) [compound 830043]
The “% Inhibition” value of the first is higher: 64% for the first, 45% for the second.

First: 830045 (k[5mC]*k[5mC]*kG*dA*dT*dT*dG*dG*d[5mC]*dA*dG*dG*dT*kT*kA*kA; antisense) [compound 830045]
Second: 830046 (kT*k[5mC]*k[5mC]*dG*dA*dT*dT*dG*dG*d[5mC]*dA*dG*dG*kT*kT*kA; antisense) [compound 830046]
The “% Inhibition” value of the first is lower: 47% for the first, 60% for the second.

First: 830047 (kT*kT*k[5mC]*d[5mC]*dG*dA*dT*dT*dG*dG*d[5mC]*dA*dG*kG*kT*kT; antisense) [compound 830047]
Second: 830048 (kT*kT*kT*d[5mC]*d[5mC]*dG*dA*dT*dT*dG*dG*d[5mC]*dA*kG*kG*kT; antisense) [compound 830048]
The “% Inhibition” value of the first is lower: 42% for the first, 57% for the second.

Compared with “830049 (kG*kT*kT*dT*d[5mC]*d[5mC]*dG*dA*dT*dT*dG*dG*d[5mC]*kA*kG*kG; antisense) [compound 830049]”, “830050 (kA*kG*kT*dT*dT*d[5mC]*d[5mC]*dG*dA*dT*dT*dG*dG*k[5mC]*kA*kG; antisense) [compound 830050]” is lower in “% Inhibition” value: 43% for the first, 39% for the second.

Compared with “830052 (kG*kA*kG*dT*dA*dA*d[5mC]*d[5mC]*dA*dG*d[5mC]*dT*dG*kT*k[5mC]*kT; antisense) [compound 830052]”, “830054 (kT*kG*kG*dG*dT*dG*dA*dG*dT*dA*dA*d[5mC]*d[5mC]*kA*kG*k[5mC]; antisense) [compound 830054]” is higher in “% Inhibition” value: 35% for the first, 48% for the second.

First: 830055 (kT*kT*kG*dG*dG*dT*dG*dA*dG*dT*dA*dA*d[5mC]*k[5mC]*kA*kG; antisense) [compound 830055]
Second: 830056 (kG*kT*kT*dT*dT*dG*dG*dG*dT*dG*dA*dG*dT*kA*kA*k[5mC]; antisense) [compound 830056]
The “% Inhibition” value of the first is higher: 57% for the first, 40% for the second.

Going from “830057 (k[5mC]*kG*kT*dT*dT*dT*dG*dG*dG*dT*dG*dA*dG*kT*kA*kA; antisense) [compound 830057]” to “830058 (kG*kG*kT*dA*dG*dG*d[5mC]*dA*d[5mC]*dA*dT*d[5mC]*dA*kT*k[5mC]*kA; antisense) [compound 830058]”, the “% Inhibition” value falls from 42% to 22%.

Compared with “830059 (kG*kG*kG*d[5mC]*d[5mC]*dA*d[5mC]*d[5mC]*d[5mC]*dA*dG*dT*dG*kA*kG*k[5mC]; antisense) [compound 830059]”, “830060 (kT*kA*k[5mC]*d[5mC]*dA*d[5mC]*d[5mC]*d[5mC]*d[5mC]*dT*dG*dT*dG*kA*kA*kG; antisense) [compound 830060]” is lower in “% Inhibition” value: 22% for the first, 8% for the second.

Compared with “830061 (k[5mC]*kT*kA*d[5mC]*d[5mC]*dA*d[5mC]*d[5mC]*d[5mC]*d[5mC]*dT*dG*dT*kG*kA*kA; antisense) [compound 830061]”, “830062 (k[5mC]*k[5mC]*kT*dA*d[5mC]*d[5mC]*dA*d[5mC]*d[5mC]*d[5mC]*d[5mC]*dT*dG*kT*kG*kA; antisense) [compound 830062]” is higher in “% Inhibition” value: 4% for the first, 17% for the second.

Going from “830063 (kT*k[5mC]*k[5mC]*d[5mC]*dT*dA*d[5mC]*d[5mC]*dA*d[5mC]*d[5mC]*d[5mC]*d[5mC]*kT*kG*kT; antisense) [compound 830063]” to “830064 (kA*kT*kG*dG*dT*dG*d[5mC]*dT*d[5mC]*dT*dG*d[5mC]*d[5mC]*k[5mC]*kT*kT; antisense) [compound 830064]”, the “% Inhibition” value falls from 37% to 29%.

First: 830065 (kA*kA*kT*dG*dG*dT*dG*d[5mC]*dT*d[5mC]*dT*dG*d[5mC]*k[5mC]*k[5mC]*kT; antisense) [compound 830065]
Second: 830066 (kA*kA*kA*dT*dG*dG*dT*dG*d[5mC]*dT*d[5mC]*dT*dG*k[5mC]*k[5mC]*k[5mC]; antisense) [compound 830066]
The “% Inhibition” value of the first is higher: 43% for the first, 37% for the second.

First: 830068 (kG*kT*kG*dA*dA*dA*dT*dG*dG*dT*dG*d[5mC]*dT*k[5mC]*kT*kG; antisense) [compound 830068]
Second: 830069 (kA*kA*kG*dG*dT*dA*dA*dG*d[5mC]*d[5mC]*dA*dG*d[5mC]*kT*k[5mC]*k[5mC]; antisense) [compound 830069]
The “% Inhibition” value of the first is lower: 39% for the first, 51% for the second.

Going from “830070 (kA*kA*kA*dG*dG*dT*dA*dA*dG*d[5mC]*d[5mC]*dA*dG*k[5mC]*kT*k[5mC]; antisense) [compound 830070]” to “830071 (kT*k[5mC]*kA*dA*dA*dG*dG*dT*dA*dA*dG*d[5mC]*d[5mC]*kA*kG*k[5mC]; antisense) [compound 830071]”, the “% Inhibition” value rises from 44% to 45%.

Compared with “830072 (kA*kT*k[5mC]*dA*dA*dA*dG*dG*dT*dA*dA*dG*d[5mC]*k[5mC]*kA*kG; antisense) [compound 830072]”, “830073 (kT*k[5mC]*kA*dG*dA*dT*d[5mC]*dA*dA*dA*dG*dG*dT*kA*kA*kG; antisense) [compound 830073]” is higher in “% Inhibition” value: 28% for the first, 41% for the second.

Compared with “830074 (k[5mC]*kT*k[5mC]*dA*dG*dA*dT*d[5mC]*dA*dA*dA*dG*dG*kT*kA*kA; antisense) [compound 830074]”, “830075 (kT*k[5mC]*kA*dG*dG*dG*dT*dG*dT*d[5mC]*dA*dG*d[5mC]*k[5mC]*k[5mC]*kA; antisense) [compound 830075]” is lower in “% Inhibition” value: 43% for the first, 39% for the second.

Compared with “830076 (k[5mC]*kA*k[5mC]*dA*dT*dT*d[5mC]*dA*dG*dG*dG*dT*dG*kT*k[5mC]*kA; antisense) [compound 830076]”, “830077 (k[5mC]*k[5mC]*kA*d[5mC]*dA*dT*dT*d[5mC]*dA*dG*dG*dG*dT*kG*kT*k[5mC]; antisense) [compound 830077]” is lower in “% Inhibition” value: 43% for the first, 37% for the second.

First: 830078 (kA*k[5mC]*k[5mC]*dA*d[5mC]*dA*dT*dT*d[5mC]*dA*dG*dG*dG*kT*kG*kT; antisense) [compound 830078]
Second: 830079 (kA*kT*kA*d[5mC]*d[5mC]*d[5mC]*dT*dG*d[5mC]*dA*d[5mC]*dT*dT*kT*k[5mC]*kT; antisense) [compound 830079]
The “% Inhibition” value of the first is lower: 0% for the first, 22% for the second.

Compared with “830080 (kT*kA*kT*dA*d[5mC]*d[5mC]*d[5mC]*dT*dG*d[5mC]*dA*d[5mC]*dT*kT*kT*k[5mC]; antisense) [compound 830080]”, “830081 (kG*kT*kG*dT*dA*dT*dA*d[5mC]*d[5mC]*d[5mC]*dT*dG*d[5mC]*kA*k[5mC]*kT; antisense) [compound 830081]” is lower in “% Inhibition” value: 32% for the first, 0% for the second.
